Data on 49 compounds can be found in patent US10919896B2, “Preparation and uses of pyrimidinone derivatives” (Cancer Research Technology Limited, priority 2016, dated 2021).

Cdc7/ASK, sequence (O00311 whole entry): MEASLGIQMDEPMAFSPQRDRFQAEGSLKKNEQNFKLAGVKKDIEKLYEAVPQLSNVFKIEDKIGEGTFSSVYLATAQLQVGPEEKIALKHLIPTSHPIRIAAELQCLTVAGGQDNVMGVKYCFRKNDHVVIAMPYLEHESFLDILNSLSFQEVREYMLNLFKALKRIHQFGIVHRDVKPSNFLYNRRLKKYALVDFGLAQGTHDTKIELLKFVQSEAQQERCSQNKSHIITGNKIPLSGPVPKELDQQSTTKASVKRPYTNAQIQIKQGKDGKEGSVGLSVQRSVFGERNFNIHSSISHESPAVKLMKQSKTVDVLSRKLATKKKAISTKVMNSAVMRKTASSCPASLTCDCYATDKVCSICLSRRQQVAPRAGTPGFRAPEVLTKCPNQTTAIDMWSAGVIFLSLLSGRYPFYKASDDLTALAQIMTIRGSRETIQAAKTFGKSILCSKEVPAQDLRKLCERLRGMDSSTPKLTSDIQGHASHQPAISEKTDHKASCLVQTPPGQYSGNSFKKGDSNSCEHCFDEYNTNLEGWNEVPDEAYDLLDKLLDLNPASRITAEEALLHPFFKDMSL
Cdc7/ASK, sequence (Q9UBU7 whole entry partner): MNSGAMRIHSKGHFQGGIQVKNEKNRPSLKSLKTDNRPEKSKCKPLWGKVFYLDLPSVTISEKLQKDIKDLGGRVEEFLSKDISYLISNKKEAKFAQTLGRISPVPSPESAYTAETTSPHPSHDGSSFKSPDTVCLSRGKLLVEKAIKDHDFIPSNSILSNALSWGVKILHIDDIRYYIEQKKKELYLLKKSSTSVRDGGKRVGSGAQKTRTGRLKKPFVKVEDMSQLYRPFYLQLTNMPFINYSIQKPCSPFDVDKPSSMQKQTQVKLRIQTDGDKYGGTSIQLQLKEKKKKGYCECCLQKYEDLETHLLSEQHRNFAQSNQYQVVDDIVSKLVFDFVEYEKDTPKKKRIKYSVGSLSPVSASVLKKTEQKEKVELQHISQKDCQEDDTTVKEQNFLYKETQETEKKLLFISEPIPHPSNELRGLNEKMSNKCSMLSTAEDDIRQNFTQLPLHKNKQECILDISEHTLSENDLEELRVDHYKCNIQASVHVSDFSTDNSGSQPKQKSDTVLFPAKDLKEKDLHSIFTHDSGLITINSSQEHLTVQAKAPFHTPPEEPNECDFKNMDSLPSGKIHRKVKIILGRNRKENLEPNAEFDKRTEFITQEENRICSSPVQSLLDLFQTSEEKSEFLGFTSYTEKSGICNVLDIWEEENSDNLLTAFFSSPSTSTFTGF

For the experiment, the target named is Cdc7/ASK (Homo sapiens, UniProt O00311). Briefly: Cdc7 Biochemical Assay Method 1: 384 well ELISA, whole protein substrate MCM2, antibody against Phospho MCM2 (S53). The following applies: 2 μM ATP, read-out: Biochemical Method 1 (pIC50) (converted). Also on record: purchased. The protocol:
This protocol describes a method for assaying Cdc7/ASK for activity. The assay is a 384 well ELISA assay, utilising a whole protein substrate (MCM2) and an antibody against Phospho MCM2 (S53). This site is thought to be specific to Cdc7/ASK phosphorylation and the assay has been validated using knockout mutants. Reagents • TBS: 25 mM Tris pH 7.2, 150 mM NaCl. (Dilute 10× stock by 1:10). • Wash Buffer: TBS+0.05% Tween 20. (Add 100 mL 1 M Tris pH 7.2, 120 mL 5 M NaCl and 2 mL 100% Tween 20 per 4 L). • Kinase Reaction Buffer: 50 mM Tris-HCl pH 8.5, 10 mM MgCl2, 1 mM DTT. (Dilute 10× stock by 1:10 and add 100 μL 1M DTT per 100 mL prior to assay). • Diethanolamine Buffer: 1 M diethanolamine pH 9.8, 0.5 mM MgCl2. • Stop Solution: 1 M NaOH. • MCM2 was expressed and purified in-house and used in the assay at a final assay concentration of 436 ng/well. • Cdc7/ASK is purchased from commercial suppliers and used in the assay at a final assay concentration of 37.97 ng/well or 20.63 nM. • ATP used as a final assay concentration of 2 μM. • Primary Antibody: Rabbit anti-Phospho MCM2 (S53 Antibody (BL3353)), is purchased from commercial suppliers at 0.2 mg/mL and used at a final assay concentration by diluting 1:800 in TBS. • Secondary Antibody: Anti-Rabbit/AP Antibody is supplied is purchased from commercial suppliers at 1 mg/mL and used at a final assay concentration by diluting 1:2000 in TBS. • Development Reagent: Dissolve one 20 mg PNPP tablet (Sigma, product […], 20 mg per tablet) per 20 mL diethanolamine Buffer (or one 5 mg PNPP tablet per 5 mL diethanolamine buffer). Cover in foil and leave shaking on a roller shaker at room temperature for up to an hour to dissolve. Methods • 1. Add 20 μL 1× working stock of Substrate (MCM2) in TBS to all wells of a clear, 384 well, Nickel-chelate microplate to give a final concentration of […]. Incubate at room temperature for at least 1 hour. Plates can be pre-coated for 1 hour and stored at 4° C. for up to 8 days. • 2. Wash with TBS+0.05% Tween 20 (80 μL×3). • 3. Add 2 μL 10× test compounds, including the positive control, in 40% DMSO/water to 'test' wells. Add 2 μL 40% DMSO/water to 'control' and 'blank' wells. The final DMSO concentration will be 4%. • 4. Add 13 μL CDC7/ASK Kinase (1.5× stock) in Kinase Reaction Buffer to 'test' and 'control' wells to give a final concentration of […]. Add 13 μL Kinase Reaction Buffer to 'blank' wells. • 5. Add 5 μL ATP (4× stock) in Kinase Reaction Buffer to all wells to give a final concentration of 2 μM. • 6. Incubate at room temperature for 90 minutes. • 7. Wash with TBS+0.05% Tween 20 (80 μL×3). • 8. Add 20 μL 1× working solution of Primary Antibody in TBS to all wells. Incubate at room temperature for 30 minutes. • 9. Wash with TBS+0.05% Tween 20 (80 μL×3). • 10. Add 20 μL 1× working solution of Secondary Antibody in TBS to all wells. Incubate at room temperature for 30 minutes. • 11. Wash with TBS+0.05% Tween 20 (80 μL×3). • 12. Add 20 μL 1× Development Reagent to all wells. • 13. Incubate at room temperature for 2 hours. Stop the reaction by adding 20 μL Stop Solution to all wells and record Absorbance on a Pherastar plate reader. Percentage inhibition values were calculated from absorbance values, using the no compound (DMSO) and no enzyme control values as 0% and 100% inhibition, respectively. IC50 determination was performed with ExcelFit software (IDBS) using curve fit 205. Z' factors were determined for each plate tested and were all above 0.5. Method 2
For orientation: An ELISA detects its analyte on a solid surface through an enzyme-linked reagent.
As to `N#Cc1c(C2CCOCC2)nc(-c2ccncc2)[nH]c1=O` [Compound 403, 6-oxo-2-(4-pyridyl)-4-tetrahydropyran-4-yl-1H-pyrimidine-5-carbonitrile], the IC50 is 25.7 nM. The value for `CCOC1CCN(c2nc(-c3ccncc3)[nH]c(=O)c2Cl)CC1` [Compound 27] was 21.4 nM. As to `CC(C)C1CC(c2nc(-c3ccncc3)[nH]c(=O)c2Cl)CCO1` (stereo not shown) [Compound 14], the IC50 is 123 nM. The value for `O=C1CN(c2nc(-c3ccncc3)[nH]c(=O)c2Cl)CCCN1` [Compound 141] was 145 nM. To `CN(C)C(=O)CN1CCN(c2nc(-c3ccncc3)[nH]c(=O)c2Cl)CC1` [Compound 110] belongs 661 nM. To `CC(C)CC1CN(c2nc(-c3ccncc3)[nH]c(=O)c2Cl)CCO1` (stereo not shown) [Compound 93] belongs 407 nM. As to `CCCC1COCCN1c1nc(-c2ccncc2)[nH]c(=O)c1Cl` (stereo not shown) [Compound 95], the IC50 was 67.6 nM.

Turning to `O=C1CN(c2nc(-c3ccncc3)[nH]c(=O)c2Cl)CCN1` [Compound 33], the IC50 was 12.9 nM. For `CC(C)(C)OC(=O)N1CC=C(c2nc(-c3ccncc3)[nH]c(=O)c2Cl)CC1` [Compound 405, tert-butyl 4-[5-chloro-6-oxo-2-(4-pyridyl)-1H-pyrimidin-4-yl]-3,6-dihydro-2H-pyridine-1-carboxylate], the IC50 was 562 nM. The value for `CN(c1ccc(C(=O)N2CCC(c3nc(-c4ccncc4)[nH]c(=O)c3Cl)CC2)cc1)S(C)(=O)=O` [Compound 65] was 5.89 nM; that for `O=c1[nH]c(-c2ccncc2)nc(C2CCNC2)c1Cl` (stereo not shown) [Compound 11] was 5.25 nM; that for `O=C(Cc1c[nH]cn1)N1CCC(c2nc(-c3ccncc3)[nH]c(=O)c2Cl)CC1` [Compound 53] was 5.75 nM. As for `O=c1[nH]c(-c2ccncc2)nc(C2CCCN2)c1Cl` (stereo not shown) [Compound 7], the IC50 was 2450 nM. For `O=c1[nH]c(-c2ccncc2)nc(N2CCCCC2)c1Cl` [Compound 26, 5-chloro-4-(1-piperidyl)-2-(4-pyridyl)-1H-pyrimidin-6-one], the IC50 is 6.76 nM. Regarding `CS(=O)(=O)N1CCN(c2nc(-c3ccncc3)[nH]c(=O)c2Cl)CC1` [Compound 43], the IC50 was 3.16 nM. For the compound `CC1(c2nc(-c3ccncc3)[nH]c(=O)c2Cl)CCOCC1` [Compound 9], the IC50 was 3.39 nM. To `Cc1cccc(C(=O)N2CCC(c3nc(-c4ccncc4)[nH]c(=O)c3Cl)CC2)c1` [Compound 72] belongs 6.92 nM; to `O=c1[nH]c(-c2ccncc2)nc(N2CCN[C@H](Cc3ccccc3)C2)c1Cl` [Compound 165], 126 nM; to `Cc1cc(C(=O)N2CCC(c3nc(-c4ccncc4)[nH]c(=O)c3Cl)CC2)no1` [Compound 69], 3.55 nM. For the compound `O=c1[nH]c(-c2ccncc2)nc(N2CC[C@@H](F)C2)c1Cl` [Compound 133], the IC50 is 56.2 nM. Regarding `NC(=O)C1CCN(c2nc(-c3ccncc3)[nH]c(=O)c2Cl)CC1` [Compound 100], the IC50 was 12 nM. To `O=c1[nH]c(-c2ccncc2)nc(N2CCN(Cc3cccc(Cl)c3)CC2)c1Cl` [Compound 80] belongs 123 nM; to `N#CCN1CCN(c2nc(-c3ccncc3)[nH]c(=O)c2Cl)CC1` [Compound 148], 33.9 nM; to `CC(C)(C)N1CCN(c2nc(-c3ccncc3)[nH]c(=O)c2Cl)CC1` [Compound 155], 977 nM. To `O=C(c1ccccn1)N1CCC(c2nc(-c3ccncc3)[nH]c(=O)c2Cl)CC1` [Compound 45] belongs 8.71 nM; to `O=C(c1ccccc1)N1CCC(c2nc(-c3ccncc3)[nH]c(=O)c2Cl)CC1` [Compound 41], 6.92 nM; to `CC(N)C(=O)N1CCC(c2nc(-c3ccncc3)[nH]c(=O)c2Cl)CC1` (stereo not shown) [Compound 75], 9.12 nM.

As for `O=c1[nH]c(-c2ccncc2)nc(C2=CCOCC2)c1Cl` [Compound 404, 5-chloro-4-(3,6-dihydro-2H-pyran-4-yl)-2-(4-pyridyl)-1H-pyrimidin-6-one], the IC50 is 166 nM. Regarding `CC(C)NC(=O)N1CCC(c2nc(-c3ccncc3)[nH]c(=O)c2Cl)CC1` [Compound 36, 4-[5-chloro-6-oxo-2-(4-pyridyl)-1-H-pyrimidin-4-yl]-N-isopropyl-piperidine-1-carboxamide], the IC50 was 25.7 nM. Turning to `COc1cccc(C2CN(c3nc(-c4ccncc4)[nH]c(=O)c3Cl)CCN2)c1` (stereo not shown) [Compound 179], the IC50 is 23.4 nM. With `O=c1[nH]c(-c2ccncc2)nc(C2(F)CCNCC2)c1Cl` [Compound 21], the IC50 is 1.51 nM. On to `CC(C)(C)OC(=O)N1CCC(c2nc(-c3ccnc(F)c3)[nH]c(=O)c2Cl)CC1` [Compound 25], for which the IC50 is 23.4 nM.

In the case of `NC(=O)C1CN(c2nc(-c3ccncc3)[nH]c(=O)c2Cl)CCO1` (stereo not shown) [Compound 96], the IC50 is 42.7 nM.

`O=c1[nH]c(-c2ccncc2)nc(C2CCOCC2)c1C(F)(F)F` [Compound 406, 2-(4-pyridyl)-4-tetrahydropyran-4-yl-5-(trifluoromethyl)-1H-pyrimidin-6-one]: the IC50 is 851 nM. In the case of `O=C1CCN(c2nc(-c3ccncc3)[nH]c(=O)c2Cl)CCN1` [Compound 117], the IC50 was 5.25 nM. `O=C(c1ccnnc1)N1CCC(c2nc(-c3ccncc3)[nH]c(=O)c2Cl)CC1` [Compound 47]: the IC50 is 1.12 nM.

Regarding `O=c1[nH]c(-c2ccncc2)nc(N2CCCN3CCC[C@@H]3C2)c1Cl` [Compound 120], the IC50 is 245 nM. The value for `CC(=O)Nc1ccc(C(=O)N2CCC(c3nc(-c4ccncc4)[nH]c(=O)c3Cl)CC2)cc1` [Compound 62] was 12 nM; that for `O=c1[nH]c(-c2ccncc2)nc(N2CCNC(c3cccc(O)c3)C2)c1Cl` (stereo not shown) [Compound 178] was 4.27 nM. The value for `O=C(N1CCC(c2nc(-c3ccncc3)[nH]c(=O)c2Cl)CC1)C(F)(F)F` [Compound 38, 5-chloro-2-(4-pyridyl)-4-[1-(2,2,2-trifluoroacetyl)-4-piperidyl]-1H-pyrimidin-6-one] was 5.62 nM. As to `CC(C)(C)OC(=O)N1CCC(c2nc(-c3ccncc3)[nH]c(=O)c2Cl)CC1` [Compound 1, tert-Butyl 4-[5-chloro-6-oxo-2-(4-pyridyl)-1H-pyrimidin-4-yl]piperidine-1-carboxylate], the IC50 is 70.8 nM. The value for `COc1ccc(S(N)(=O)=O)cc1C(=O)N1CCC(c2nc(-c3ccncc3)[nH]c(=O)c2Cl)CC1` [Compound 61] was 6.17 nM; that for `O=c1[nH]c(-c2ccnc(F)c2)nc(C2CCOCC2)c1F` [Compound 17] was 2.34 nM.

Consider `COc1cccc(N2CCN(c3nc(-c4ccncc4)[nH]c(=O)c3Cl)CC2)c1` [Compound 113], for which the IC50 was 28.8 nM.

With `CC(C)(C)C(=O)N1CCC(c2nc(-c3ccncc3)[nH]c(=O)c2Cl)CC1` [Compound 44], the IC50 was 63.1 nM. With `O=c1[nH]c(-c2ccncc2)nc(C2CCOCC2)c1Br` [Compound 3, 5-bromo-2-(4-pyridyl)-4-tetrahydropyran-4-yl-1H-pyrimidin-6-one], the IC50 is 6.76 nM. `O=C(c1cn[nH]c1)N1CCC(c2nc(-c3ccncc3)[nH]c(=O)c2Cl)CC1` [Compound 68]: the IC50 was 2.69 nM. To `CN(C)C1CCN(c2nc(-c3ccncc3)[nH]c(=O)c2Cl)C1` (stereo not shown) [Compound 29] belongs 1260 nM; to `Cc1nc(C)c(C(=O)N2CCC(c3nc(-c4ccncc4)[nH]c(=O)c3Cl)CC2)s1` [Compound 54], 0.871 nM.
